Experimental data taken from PubChem BioAssay AID2060885 (Molecular Pharmacology Branch, DTP, NCI, 2025).

Tested on: NCI-H23 complex spheroids with HUVEC/MSC, viability
Assay: Anticancer human tumor NCI-H23 cell line growth inhibition [RAS];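 also: spheroids exposed to compound for 7 days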;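 as to viability, T/C: 100% = DMSO vehicle control viability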
Conditions: for IC50: curve of first compound; for viability, T/C: stronger effect = lower value
Method in brief: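 Agents were tested in combination matrices in half-log decrements from a top concentration at or near clinical Cmax (10 microM if undetermined). Targets were multi-cell spheroids of tumour lines plus HUVEC and MSC stromal cells.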

[1] = second compound 0.00316 µM, first compound 0.0316 µM
[2] = second compound 0.00316 µM, first compound 0.1 µM
[3] = second compound 0.00316 µM, first compound 0.316 µM
[4] = second compound 0.00316 µM, first compound 1 µM
[5] = second compound 0.00316 µM, first compound 3.16 µM
[6] = second compound 0.00316 µM, first compound 10 µM
[7] = second compound 0.01 µM, first compound 0.0316 µM
[8] = second compound 0.01 µM, first compound 0.1 µM
[9] = second compound 0.01 µM, first compound 0.316 µM
[10] = second compound 0.01 µM, first compound 1 µM
[11] = second compound 0.01 µM, first compound 3.16 µM
[12] = second compound 0.01 µM, first compound 10 µM
[13] = second compound 0.0316 µM, first compound 0.0316 µM
[14] = second compound 0.0316 µM, first compound 0.1 µM
[15] = second compound 0.0316 µM, first compound 0.316 µM
[16] = second compound 0.0316 µM, first compound 1 µM
[17] = second compound 0.0316 µM, first compound 3.16 µM
[18] = second compound 0.0316 µM, first compound 10 µM
[19] = second compound 0.1 µM, first compound 0.0316 µM
[20] = second compound 0.1 µM, first compound 0.1 µM
[21] = second compound 0.1 µM, first compound 0.316 µM
[22] = second compound 0.1 µM, first compound 1 µM
[23] = second compound 0.1 µM, first compound 3.16 µM
[24] = second compound 0.1 µM, first compound 10 µM
[25] = second compound 0.316 µM, first compound 0.0316 µM
[26] = second compound 0.316 µM, first compound 0.1 µM
[27] = second compound 0.316 µM, first compound 0.316 µM
[28] = second compound 0.316 µM, first compound 1 µM
[29] = second compound 0.316 µM, first compound 3.16 µM
[30] = second compound 0.316 µM, first compound 10 µM
[31] = second compound 1 µM, first compound 0.0316 µM
[32] = second compound 1 µM, first compound 0.1 µM
[33] = second compound 1 µM, first compound 0.316 µM
[34] = second compound 1 µM, first compound 1 µM
[35] = second compound 1 µM, first compound 3.16 µM
[36] = second compound 1 µM, first compound 10 µM

`C[C@@H](NC(=O)c1ncnc(N)c1Cl)c1ncc(C(=O)Nc2cc(C(F)(F)F)c(Cl)cn2)s1` + C=CC(=O)N1CCN(c2nc(OCC3CCCN3C)nc3c(F)c(-c4nc(N)cc(C)c4C(F)(F)F)c(Cl)cc23)C(C)C1 was tested, and the IC50 (second compound 0.00316 µM) was > 10000 nM, the IC50 (second compound 0.01 µM) was 201 nM and the IC50 (second compound 0.0316 µM) was < 31.6 nM. For the same compound, the IC50 (second compound 0.1 µM) was < 31.6 nM, the IC50 (second compound 0.316 µM) was < 31.6 nM and the IC50 (second compound 1 µM) was < 31.6 nM. The viability, T/C [1] was 72.2%, the viability, T/C [2] was 79.4% and the viability, T/C [3] was 61.5%. It also gave a viability, T/C [4] of 63.1%, a viability, T/C [5] of 63.2% and a viability, T/C [6] of 59.6%. For the same compound, the viability, T/C [7] was 60.9%, the viability, T/C [8] was 53.3% and the viability, T/C [9] was 47.8%. It also gave a viability, T/C [10] of 44.7%, a viability, T/C [11] of 45.8% and a viability, T/C [12] of 52.4%. For the same compound, the viability, T/C [13] was 43.6%, the viability, T/C [14] was 49% and the viability, T/C [15] was 38.9%. The viability, T/C [16] was 38.6%, the viability, T/C [17] was 42% and the viability, T/C [18] was 40.4%. It also gave a viability, T/C [19] of 43.3%, a viability, T/C [20] of 46.5% and a viability, T/C [21] of 36.2%. The viability, T/C [22] was 42.2%, the viability, T/C [23] was 45.9% and the viability, T/C [24] was 39.1%. For the same compound, the viability, T/C [25] was 42.1%, the viability, T/C [26] was 37.3% and the viability, T/C [27] was 40.8%. For the same compound, the viability, T/C [28] was 40.6%, the viability, T/C [29] was 42.7% and the viability, T/C [30] was 41%. The viability, T/C [31] was 36.4%, the viability, T/C [32] was 44.4% and the viability, T/C [33] was 45.4%. For the same compound, the viability, T/C [34] was 42%, the viability, T/C [35] was 43.6% and the viability, T/C [36] was 40.5%.
For `CC1(O)CCCC1n1c(=O)c(C(F)F)cc2cnc(NC3CCN(S(C)(=O)=O)CC3)nc21` (centres undefined) + C=CC(=O)N1CCN(c2nc(OCC3CCCN3C)nc3c(F)c(-c4nc(N)cc(C)c4C(F)(F)F)c(Cl)cc23)C(C)C1, the IC50 (second compound 0.00316 µM) was < 31.6 nM, the IC50 (second compound 0.01 µM) was < 31.6 nM and the IC50 (second compound 0.0316 µM) was < 31.6 nM. For the same compound, the IC50 (second compound 0.1 µM) was < 31.6 nM, the IC50 (second compound 0.316 µM) was < 31.6 nM and the IC50 (second compound 1 µM) was < 31.6 nM. It also gave a viability, T/C [1] of 46.8%, a viability, T/C [2] of 41.8% and a viability, T/C [3] of 30.8%. It also gave a viability, T/C [4] of 29.7%, a viability, T/C [5] of 28.1% and a viability, T/C [6] of 6.28%. For the same compound, the viability, T/C [7] was 44.6%, the viability, T/C [8] was 32.1% and the viability, T/C [9] was 24.9%. It also gave a viability, T/C [10] of 27.3%, a viability, T/C [11] of 25.9% and a viability, T/C [12] of 4.38%. It also gave a viability, T/C [13] of 36.1%, a viability, T/C [14] of 26.5% and a viability, T/C [15] of 23.1%. For the same compound, the viability, T/C [16] was 25.3%, the viability, T/C [17] was 26.5% and the viability, T/C [18] was 3.8%. The viability, T/C [19] was 34.6%, the viability, T/C [20] was 28.7% and the viability, T/C [21] was 22.1%. For the same compound, the viability, T/C [22] was 22.6%, the viability, T/C [23] was 23.6% and the viability, T/C [24] was 4.58%. For the same compound, the viability, T/C [25] was 31.2%, the viability, T/C [26] was 23.1% and the viability, T/C [27] was 22.4%. The viability, T/C [28] was 20.3%, the viability, T/C [29] was 27.6% and the viability, T/C [30] was 3.96%. For the same compound, the viability, T/C [31] was 27.1%, the viability, T/C [32] was 25.9% and the viability, T/C [33] was 21%. It also gave a viability, T/C [34] of 22%, a viability, T/C [35] of 23.5% and a viability, T/C [36] of 2.26%.
